In ChEMBL document CHEMBL5291721, “A preclinical secondary pharmacology resource illuminates target-adverse drug reaction associations of marketed drugs” (Nat Commun, 2023) one finds AC50 data, which are given here for eight compounds.

One may read the AC50 as the midpoint of the concentration-response curve, whichever way the signal moves.

In experiment [1] the target is T1, Type-1 angiotensin II receptor (Homo sapiens, UniProt P30556).
T1 sequence (P30556 whole entry): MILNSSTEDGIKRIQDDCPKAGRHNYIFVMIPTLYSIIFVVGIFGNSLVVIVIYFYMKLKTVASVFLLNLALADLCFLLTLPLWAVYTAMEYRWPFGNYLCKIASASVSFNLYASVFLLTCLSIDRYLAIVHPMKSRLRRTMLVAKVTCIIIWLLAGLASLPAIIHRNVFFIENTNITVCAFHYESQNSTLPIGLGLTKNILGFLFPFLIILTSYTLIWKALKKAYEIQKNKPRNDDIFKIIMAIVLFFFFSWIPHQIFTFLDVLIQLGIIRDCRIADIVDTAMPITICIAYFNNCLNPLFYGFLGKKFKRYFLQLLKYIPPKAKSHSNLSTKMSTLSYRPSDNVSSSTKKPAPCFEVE

For experiment [2], the target named is 5-hydroxytryptamine receptor 2B (Homo sapiens, UniProt P41595). The class given is functional, cell-based.
Sequence of 5-hydroxytryptamine receptor 2B (P41595 whole entry): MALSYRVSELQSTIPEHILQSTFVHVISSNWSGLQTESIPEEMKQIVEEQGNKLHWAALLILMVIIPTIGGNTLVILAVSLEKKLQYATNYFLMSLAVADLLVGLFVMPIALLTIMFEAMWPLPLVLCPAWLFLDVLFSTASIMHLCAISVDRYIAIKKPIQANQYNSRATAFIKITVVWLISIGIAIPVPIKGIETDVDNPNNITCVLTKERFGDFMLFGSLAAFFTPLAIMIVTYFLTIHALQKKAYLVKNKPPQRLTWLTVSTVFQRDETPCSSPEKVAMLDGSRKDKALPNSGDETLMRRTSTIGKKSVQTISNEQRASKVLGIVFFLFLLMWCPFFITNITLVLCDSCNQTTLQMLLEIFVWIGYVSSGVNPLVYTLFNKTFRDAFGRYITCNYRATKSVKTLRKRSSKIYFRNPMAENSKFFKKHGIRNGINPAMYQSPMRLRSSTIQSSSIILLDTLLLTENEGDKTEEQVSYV
Experiment [3] deals with Beta-1 adrenergic receptor (Homo sapiens, UniProt P08588). The format is functional.
Sequence of Beta-1 adrenergic receptor (P08588 whole entry): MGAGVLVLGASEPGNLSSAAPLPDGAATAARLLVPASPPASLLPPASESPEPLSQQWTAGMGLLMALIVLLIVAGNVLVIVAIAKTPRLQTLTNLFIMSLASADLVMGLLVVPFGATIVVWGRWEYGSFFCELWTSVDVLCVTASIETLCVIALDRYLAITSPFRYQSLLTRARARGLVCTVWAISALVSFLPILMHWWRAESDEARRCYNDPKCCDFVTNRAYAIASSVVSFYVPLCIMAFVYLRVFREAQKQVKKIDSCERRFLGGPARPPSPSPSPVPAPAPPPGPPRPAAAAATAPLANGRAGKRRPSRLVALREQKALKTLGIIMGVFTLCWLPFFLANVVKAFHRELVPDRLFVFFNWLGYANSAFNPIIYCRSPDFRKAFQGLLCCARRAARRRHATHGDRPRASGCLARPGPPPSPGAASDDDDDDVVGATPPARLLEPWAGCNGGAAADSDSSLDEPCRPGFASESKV
Experiment [4] addresses T2, 5-hydroxytryptamine receptor 2C (Homo sapiens, UniProt P28335).
T2 sequence (P28335 whole entry): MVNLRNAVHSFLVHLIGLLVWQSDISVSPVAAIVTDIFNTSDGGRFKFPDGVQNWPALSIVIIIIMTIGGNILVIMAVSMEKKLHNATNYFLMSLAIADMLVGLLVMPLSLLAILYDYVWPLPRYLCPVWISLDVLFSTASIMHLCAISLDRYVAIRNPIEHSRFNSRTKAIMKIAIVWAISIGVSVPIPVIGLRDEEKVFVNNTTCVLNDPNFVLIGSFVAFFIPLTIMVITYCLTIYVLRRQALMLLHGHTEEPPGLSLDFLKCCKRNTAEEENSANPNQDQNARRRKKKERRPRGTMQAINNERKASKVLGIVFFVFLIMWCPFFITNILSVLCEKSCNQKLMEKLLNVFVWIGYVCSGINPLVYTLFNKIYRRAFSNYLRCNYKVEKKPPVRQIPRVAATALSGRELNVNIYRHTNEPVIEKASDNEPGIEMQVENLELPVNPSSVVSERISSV

The target in experiment [5] is Bile salt export pump (Homo sapiens, UniProt O95342). The format is functional.
Sequence of Bile salt export pump (O95342 whole entry): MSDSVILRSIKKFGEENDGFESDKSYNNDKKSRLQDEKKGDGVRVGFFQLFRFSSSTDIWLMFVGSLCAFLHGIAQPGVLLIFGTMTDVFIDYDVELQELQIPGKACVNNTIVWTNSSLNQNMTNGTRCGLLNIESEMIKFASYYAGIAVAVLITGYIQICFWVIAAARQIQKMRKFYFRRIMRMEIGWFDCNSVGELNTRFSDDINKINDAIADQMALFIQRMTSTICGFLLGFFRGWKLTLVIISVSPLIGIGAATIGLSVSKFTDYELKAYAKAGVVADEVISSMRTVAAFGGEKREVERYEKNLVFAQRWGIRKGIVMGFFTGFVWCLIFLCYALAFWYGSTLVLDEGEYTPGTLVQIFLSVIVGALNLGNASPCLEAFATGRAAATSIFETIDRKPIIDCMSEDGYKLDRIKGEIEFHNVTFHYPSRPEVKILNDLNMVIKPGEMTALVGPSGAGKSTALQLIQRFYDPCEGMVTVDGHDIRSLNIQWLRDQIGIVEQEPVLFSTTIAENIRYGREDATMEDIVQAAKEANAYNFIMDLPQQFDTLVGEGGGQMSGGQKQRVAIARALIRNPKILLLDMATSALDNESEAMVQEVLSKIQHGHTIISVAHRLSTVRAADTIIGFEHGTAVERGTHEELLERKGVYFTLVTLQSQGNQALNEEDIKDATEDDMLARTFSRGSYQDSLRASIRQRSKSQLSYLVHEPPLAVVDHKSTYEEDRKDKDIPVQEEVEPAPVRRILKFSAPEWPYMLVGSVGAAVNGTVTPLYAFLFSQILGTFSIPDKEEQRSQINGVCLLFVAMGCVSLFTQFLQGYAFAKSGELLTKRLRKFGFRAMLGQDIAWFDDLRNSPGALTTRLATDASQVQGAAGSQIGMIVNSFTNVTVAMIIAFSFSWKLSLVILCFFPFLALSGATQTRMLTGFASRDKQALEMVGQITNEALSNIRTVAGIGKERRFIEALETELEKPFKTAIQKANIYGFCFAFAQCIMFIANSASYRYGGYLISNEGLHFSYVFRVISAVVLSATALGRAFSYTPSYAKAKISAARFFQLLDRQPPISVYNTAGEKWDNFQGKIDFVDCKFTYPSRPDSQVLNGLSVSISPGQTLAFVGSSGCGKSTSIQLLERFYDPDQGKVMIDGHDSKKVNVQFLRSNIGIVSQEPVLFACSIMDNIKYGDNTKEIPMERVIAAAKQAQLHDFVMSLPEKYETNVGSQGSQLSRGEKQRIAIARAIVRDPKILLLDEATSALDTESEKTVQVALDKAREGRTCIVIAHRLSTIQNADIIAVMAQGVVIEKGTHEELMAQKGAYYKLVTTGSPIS
The target of experiment [6] is Melanocortin receptor 3 (Homo sapiens, UniProt P41968).
Sequence of Melanocortin receptor 3 (P41968 whole entry): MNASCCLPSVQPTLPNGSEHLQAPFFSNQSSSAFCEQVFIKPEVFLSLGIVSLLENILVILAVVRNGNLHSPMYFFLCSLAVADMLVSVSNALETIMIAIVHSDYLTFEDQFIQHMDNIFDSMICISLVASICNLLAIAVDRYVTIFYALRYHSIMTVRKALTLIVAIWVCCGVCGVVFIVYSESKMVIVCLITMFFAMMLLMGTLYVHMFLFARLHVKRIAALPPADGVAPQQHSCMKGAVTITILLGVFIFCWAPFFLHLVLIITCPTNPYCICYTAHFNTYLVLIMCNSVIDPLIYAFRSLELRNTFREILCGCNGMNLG
Experiment [7] has as its target Sodium-dependent dopamine transporter (Homo sapiens, UniProt Q01959).
Experiment [8] deals with T3, Alpha-2C adrenergic receptor (Homo sapiens, UniProt P18825).
T3 sequence (P18825 whole entry): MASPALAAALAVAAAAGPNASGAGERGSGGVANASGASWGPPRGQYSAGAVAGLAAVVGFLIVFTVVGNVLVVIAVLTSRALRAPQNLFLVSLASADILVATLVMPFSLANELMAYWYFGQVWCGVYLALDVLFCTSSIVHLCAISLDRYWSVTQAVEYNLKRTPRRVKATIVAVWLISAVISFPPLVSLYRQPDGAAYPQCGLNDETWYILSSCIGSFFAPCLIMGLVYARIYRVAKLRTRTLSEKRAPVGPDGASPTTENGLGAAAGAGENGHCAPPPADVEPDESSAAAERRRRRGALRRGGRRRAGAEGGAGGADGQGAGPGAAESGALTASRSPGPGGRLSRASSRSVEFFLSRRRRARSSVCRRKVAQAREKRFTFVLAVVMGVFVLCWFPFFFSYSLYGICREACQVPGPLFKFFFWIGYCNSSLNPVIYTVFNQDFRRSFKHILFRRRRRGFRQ
The class given is functional.

Experiment [9] concerns the target Vasopressin V1a receptor (Homo sapiens, UniProt P37288).
In experiment [10] the target is T4, Equilibrative nucleoside transporter 1 (Homo sapiens, UniProt Q99808).
T4 sequence (Q99808 whole entry): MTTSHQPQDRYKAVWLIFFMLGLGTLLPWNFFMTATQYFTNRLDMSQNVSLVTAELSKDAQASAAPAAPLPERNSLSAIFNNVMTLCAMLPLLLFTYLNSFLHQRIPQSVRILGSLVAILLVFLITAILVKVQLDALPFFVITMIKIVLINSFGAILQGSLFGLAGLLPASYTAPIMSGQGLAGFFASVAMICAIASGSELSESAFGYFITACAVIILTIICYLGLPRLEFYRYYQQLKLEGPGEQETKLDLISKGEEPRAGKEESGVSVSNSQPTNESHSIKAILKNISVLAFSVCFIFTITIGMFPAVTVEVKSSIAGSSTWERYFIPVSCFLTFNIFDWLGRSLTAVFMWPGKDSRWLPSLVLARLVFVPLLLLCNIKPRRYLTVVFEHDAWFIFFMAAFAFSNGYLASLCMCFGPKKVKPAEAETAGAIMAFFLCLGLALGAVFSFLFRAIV

The target in experiment [11] is D(3) dopamine receptor (Homo sapiens, UniProt P35462).
Sequence of D(3) dopamine receptor (P35462 whole entry): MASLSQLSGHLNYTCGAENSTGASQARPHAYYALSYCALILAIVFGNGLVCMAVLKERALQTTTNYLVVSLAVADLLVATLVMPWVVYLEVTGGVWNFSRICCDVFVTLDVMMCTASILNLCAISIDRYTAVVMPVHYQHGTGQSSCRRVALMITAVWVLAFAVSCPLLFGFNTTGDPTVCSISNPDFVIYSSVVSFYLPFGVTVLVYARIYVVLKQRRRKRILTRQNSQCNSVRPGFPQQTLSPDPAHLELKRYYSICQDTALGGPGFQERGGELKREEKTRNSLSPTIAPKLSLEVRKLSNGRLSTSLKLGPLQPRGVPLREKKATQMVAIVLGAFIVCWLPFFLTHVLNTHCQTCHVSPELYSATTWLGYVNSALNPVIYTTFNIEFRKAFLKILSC
Experiment [12] concerns the target T5, 5-hydroxytryptamine receptor 1A (Homo sapiens, UniProt P08908).
T5 sequence (P08908 whole entry): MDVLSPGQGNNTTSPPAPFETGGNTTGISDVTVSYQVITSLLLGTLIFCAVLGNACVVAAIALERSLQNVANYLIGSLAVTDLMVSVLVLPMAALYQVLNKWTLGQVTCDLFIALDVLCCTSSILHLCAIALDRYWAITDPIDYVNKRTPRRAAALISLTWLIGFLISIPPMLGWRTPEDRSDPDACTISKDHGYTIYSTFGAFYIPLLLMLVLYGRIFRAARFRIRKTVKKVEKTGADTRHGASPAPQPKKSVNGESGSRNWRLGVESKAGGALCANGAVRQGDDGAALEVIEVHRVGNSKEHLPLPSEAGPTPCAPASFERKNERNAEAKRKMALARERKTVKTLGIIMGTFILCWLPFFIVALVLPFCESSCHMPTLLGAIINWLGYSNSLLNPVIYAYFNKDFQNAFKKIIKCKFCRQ
The class given is functional, cell-based.

For experiment [13], the target named is Growth hormone secretagogue receptor type 1 (Homo sapiens, UniProt Q92847).
Sequence of Growth hormone secretagogue receptor type 1 (Q92847 whole entry): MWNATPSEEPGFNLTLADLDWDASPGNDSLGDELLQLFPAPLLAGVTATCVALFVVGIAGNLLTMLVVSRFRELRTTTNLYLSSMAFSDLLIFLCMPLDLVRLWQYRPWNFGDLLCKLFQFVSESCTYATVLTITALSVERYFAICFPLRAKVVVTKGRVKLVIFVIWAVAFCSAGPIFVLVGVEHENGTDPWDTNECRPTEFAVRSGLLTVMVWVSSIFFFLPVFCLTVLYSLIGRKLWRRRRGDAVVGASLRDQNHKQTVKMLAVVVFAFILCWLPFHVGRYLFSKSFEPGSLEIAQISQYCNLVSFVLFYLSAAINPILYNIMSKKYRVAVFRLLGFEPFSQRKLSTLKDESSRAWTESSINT
The target of experiment [14] is Gamma-aminobutyric acid receptor subunit alpha-1 (Rattus norvegicus, UniProt P62813). The class given is functional.
Sequence of Gamma-aminobutyric acid receptor subunit alpha-1 (P62813 whole entry): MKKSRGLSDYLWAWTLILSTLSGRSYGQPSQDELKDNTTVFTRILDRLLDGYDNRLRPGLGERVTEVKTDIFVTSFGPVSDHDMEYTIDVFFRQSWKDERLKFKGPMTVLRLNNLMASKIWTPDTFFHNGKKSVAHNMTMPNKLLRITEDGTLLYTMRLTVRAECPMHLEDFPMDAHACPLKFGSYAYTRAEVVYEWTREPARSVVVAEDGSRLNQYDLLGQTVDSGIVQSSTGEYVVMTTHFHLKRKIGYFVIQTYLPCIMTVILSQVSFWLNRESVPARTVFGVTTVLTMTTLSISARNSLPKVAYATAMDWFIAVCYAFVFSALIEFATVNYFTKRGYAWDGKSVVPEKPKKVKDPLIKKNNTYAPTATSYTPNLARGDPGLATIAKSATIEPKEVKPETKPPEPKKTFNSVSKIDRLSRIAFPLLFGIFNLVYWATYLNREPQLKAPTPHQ
Experiment [15] concerns the target Adenosine receptor A2a (Homo sapiens, UniProt P29274).

Structures are written as SMILES.
Further: assay procedure not described here.

Sequence of Vasopressin V1a receptor (P37288 whole entry): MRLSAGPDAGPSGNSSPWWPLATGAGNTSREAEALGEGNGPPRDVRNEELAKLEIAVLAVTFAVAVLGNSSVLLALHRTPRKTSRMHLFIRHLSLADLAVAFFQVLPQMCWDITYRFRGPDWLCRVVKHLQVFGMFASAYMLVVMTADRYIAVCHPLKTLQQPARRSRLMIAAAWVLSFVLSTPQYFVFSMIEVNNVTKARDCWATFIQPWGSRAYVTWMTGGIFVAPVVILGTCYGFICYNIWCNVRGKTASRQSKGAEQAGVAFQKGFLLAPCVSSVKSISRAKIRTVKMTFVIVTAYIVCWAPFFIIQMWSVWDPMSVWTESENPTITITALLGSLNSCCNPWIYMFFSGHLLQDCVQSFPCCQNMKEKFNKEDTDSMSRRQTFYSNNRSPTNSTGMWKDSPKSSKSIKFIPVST
Sequence of Adenosine receptor A2a (P29274 whole entry): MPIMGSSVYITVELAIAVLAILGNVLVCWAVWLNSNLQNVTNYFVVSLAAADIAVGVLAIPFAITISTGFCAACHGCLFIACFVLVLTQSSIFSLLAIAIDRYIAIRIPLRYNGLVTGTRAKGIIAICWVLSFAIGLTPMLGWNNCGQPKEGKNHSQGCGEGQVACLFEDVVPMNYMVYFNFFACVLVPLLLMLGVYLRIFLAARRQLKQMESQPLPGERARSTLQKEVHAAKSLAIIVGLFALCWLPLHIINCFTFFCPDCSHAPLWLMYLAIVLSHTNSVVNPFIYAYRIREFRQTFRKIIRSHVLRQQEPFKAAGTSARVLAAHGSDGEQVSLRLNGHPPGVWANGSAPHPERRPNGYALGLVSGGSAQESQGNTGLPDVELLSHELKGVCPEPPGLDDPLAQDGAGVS

With `C[C@@H](O)[C@H]1C(=O)N2C(C(=O)O)=C(S[C@@H]3CN[C@H](C(=O)N(C)C)C3)[C@H](C)[C@H]12` [MEROPENEM], the AC50 in experiment [1], in [2], in [3], in experiment [4], in [5] and in [6] was greater than 300 µM throughout. Besides, the AC50 in [7], in experiment [8], in [9], in experiment [10], in [11] and in experiment [12] was greater than 300 µM throughout. Moreover, the results for the AC50 in experiment [13], in experiment [14] and in [15] were greater than 300 µM, greater than 10 µM and greater than 300 µM, respectively.

Consider `CNC1Cc2ccccc2N(C)c2ccccc21` (stereo not given) [METAPRAMINE], for which the AC50 in [1] was greater than 30 µM; in experiment [2], 0.95 µM; in experiment [3], greater than 30 µM; in [4], 29 µM; in [5] it was greater than 300 µM; in experiment [6] it was greater than 30 µM. Also, the AC50 in [7] was greater than 30 µM; in experiment [8], 26 µM; in [9], greater than 30 µM; in experiment [10] it was greater than 30 µM; in [11] it was greater than 30 µM; in experiment [12], greater than 10 µM. Besides, the AC50 in experiment [13], in experiment [14] and in [15] was greater than 30 µM in each case.

Consider `CC1(C)NC(=O)N(c2ccc([N+](=O)[O-])c(C(F)(F)F)c2)C1=O` [NILUTAMIDE], for which the AC50 in experiment [1] was greater than 30 µM; in [2], greater than 30 µM; in experiment [3] it was greater than 30 µM; in [4], greater than 30 µM; in experiment [5] it was greater than 300 µM; in [6], greater than 30 µM. The AC50 in [7], in experiment [8], in experiment [9], in experiment [10], in experiment [11] and in experiment [12] was greater than 30 µM in each case. Moreover, the AC50 in experiment [13], in experiment [14] and in experiment [15] was greater than 30 µM in each case.

For the compound `CC[C@H]1[C@@H](O)[C@@H]2[C@H](CC[C@]3(C)[C@@H]([C@H](C)CCC(=O)O)CC[C@@H]23)[C@@]2(C)CC[C@@H](O)C[C@@H]12` [OBETICHOLIC ACID], the AC50 in [1] was greater than 30 µM; in experiment [2], greater than 30 µM; in experiment [3], greater than 30 µM; in experiment [4], greater than 30 µM; in experiment [5], greater than 300 µM; in experiment [6] it was greater than 30 µM. Moreover, the AC50 in [7], in experiment [8], in experiment [9], in experiment [10], in experiment [11] and in experiment [12] was greater than 30 µM in each case. Moreover, the AC50 in [13], in [14] and in experiment [15] was greater than 30 µM each time.

On to `COc1ccc(CC(C)(C)NC[C@H](O)c2cc(O)cc3c2OCC(=O)N3)cc1` [OLODATEROL], for which the AC50 in [1] was greater than 30 µM; in [2] it was greater than 30 µM; in [3], 0.58 µM; in experiment [4] it was greater than 30 µM; in [5], greater than 300 µM; in [6], greater than 30 µM. Moreover, the AC50 in experiment [7] was 11 µM; in experiment [8] it was greater than 30 µM; in experiment [9], greater than 30 µM; in experiment [10] it was greater than 30 µM; in experiment [11], greater than 30 µM; in experiment [12] it was greater than 30 µM. For the same compound, the AC50 in [13], in experiment [14] and in experiment [15] was greater than 30 µM throughout.

For the compound `C1CCC(C(CC2CCCCN2)C2CCCCC2)CC1` (stereo not given) [PERHEXILINE], the half-maximal activity concentration (AC50) was greater than 30 µM in experiment [1]; 12 µM in experiment [2]; greater than 30 µM in experiment [3]; greater than 30 µM in experiment [4]; 72 µM in [5]; 8.28 µM in [6]. Besides, the half-maximal activity concentration (AC50) was 7.05 µM in experiment [7]; 16.5 µM in [8]; greater than 30 µM in experiment [9]; greater than 30 µM in experiment [10]; greater than 30 µM in experiment [11]; 9.1 µM in experiment [12]. In addition, the AC50 was 6.2 µM in [13], greater than 30 µM in experiment [14] and greater than 30 µM in experiment [15].

As for `COCCCN1CCC(NC(=O)c2cc(Cl)c(N)c3c2OCC3)CC1` [PRUCALOPRIDE], the AC50 is greater than 30 µM in [1]; greater than 30 µM in [2]; greater than 30 µM in experiment [3]; greater than 30 µM in [4]; greater than 300 µM in [5]; greater than 30 µM in experiment [6]. In addition, the concentration at half-maximal activity (AC50) in [7] was greater than 30 µM; in experiment [8], 14 µM; in experiment [9], greater than 30 µM; in experiment [10] it was greater than 30 µM; in [11] it was greater than 30 µM; in [12] it was greater than 30 µM. Also, the AC50 in experiment [13], in experiment [14] and in experiment [15] was greater than 30 µM in each case.

`COc1ccccc1OCC(O)CN1CCN(CC(=O)Nc2c(C)cccc2C)CC1` (stereo not given) [RANOLAZINE]: the AC50 in experiment [1] was greater than 30 µM; in [2], greater than 30 µM; in experiment [3], 7.8 µM; in experiment [4], greater than 30 µM; in experiment [5], greater than 300 µM; in [6], greater than 30 µM. Also, the AC50 in [7] is greater than 30 µM; in experiment [8], 1.4 µM; in [9], greater than 30 µM; in experiment [10], greater than 30 µM; in [11] it was 18 µM; in [12], greater than 30 µM. Moreover, the AC50 in [13], in experiment [14] and in experiment [15] was greater than 30 µM in each case.
